According to PubChem BioAssay (NCI):
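These data come from cells grown in 96-well plates and exposed to compound for 48 hours at five concentrations. Definition used: TGI = concentration required for complete inhibition of growth.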

What was measured:
Experiment in all cases: DTP human tumour cell line panel, 48 h
UO-31 renal = test system: UO-31 renal
SK-MEL-28 melanoma = test system: SK-MEL-28 melanoma
HT29 colon = test system: HT29 colon
SF-539 CNS = test system: SF-539 CNS
LOX IMVI melanoma = test system: LOX IMVI melanoma
ACHN renal = test system: ACHN renal
RXF 393 renal = test system: RXF 393 renal
COLO 205 colon = test system: COLO 205 colon
UACC-62 melanoma = test system: UACC-62 melanoma
SN12C renal = test system: SN12C renal
UACC-257 melanoma = test system: UACC-257 melanoma
SK-MEL-2 melanoma = test system: SK-MEL-2 melanoma
MOLT-4 leukemia = test system: MOLT-4 leukemia
OVCAR-5 ovarian = test system: OVCAR-5 ovarian
SF-295 CNS = test system: SF-295 CNS
786-0 renal = test system: 786-0 renal
HCT-15 colon = test system: HCT-15 colon
NCI-H226 lung = test system: NCI-H226 lung
TK-10 renal = test system: TK-10 renal
BT-549 breast = test system: BT-549 breast
HCT-116 colon = test system: HCT-116 colon
OVCAR-8 ovarian = test system: OVCAR-8 ovarian
HS 578T breast = test system: HS 578T breast
K-562 leukemia = test system: K-562 leukemia
IGROV1 ovarian = test system: IGROV1 ovarian
SW-620 colon = test system: SW-620 colon
SNB-75 CNS = test system: SNB-75 CNS
NCI-H460 lung = test system: NCI-H460 lung
HOP-62 NSCLC = test system: HOP-62 NSCLC
CCRF-CEM leukemia = test system: CCRF-CEM leukemia
MDA-N = test system: MDA-N
HL-60(TB) leukemia = test system: HL-60(TB) leukemia
A498 renal = test system: A498 renal
A549 NSCLC = test system: A549 NSCLC
SK-OV-3 ovarian = test system: SK-OV-3 ovarian
U251 CNS = test system: U251 CNS
M14 melanoma = test system: M14 melanoma
SNB-19 CNS = test system: SNB-19 CNS
OVCAR-4 ovarian = test system: OVCAR-4 ovarian
NCI-H23 lung = test system: NCI-H23 lung
SR leukemia = test system: SR leukemia
KM12 colon = test system: KM12 colon
OVCAR-3 ovarian = test system: OVCAR-3 ovarian
NCI/ADR-RES ovarian = test system: NCI/ADR-RES ovarian
SK-MEL-5 melanoma = test system: SK-MEL-5 melanoma
MALME-3M melanoma = test system: MALME-3M melanoma
HOP-92 NSCLC = test system: HOP-92 NSCLC
EKVX NSCLC = test system: EKVX NSCLC
MCF7 breast = test system: MCF7 breast
PC-3 prostate = test system: PC-3 prostate
MDA-MB-231 breast = test system: MDA-MB-231 breast
CAKI-1 renal = test system: CAKI-1 renal
HCC-2998 colon = test system: HCC-2998 colon
DU-145 prostate = test system: DU-145 prostate
RPMI-8226 leukemia = test system: RPMI-8226 leukemia
T-47D breast = test system: T-47D breast
SF-268 CNS = test system: SF-268 CNS
MDA-MB-435 = test system: MDA-MB-435
NCI-H522 lung = test system: NCI-H522 lung

## O=c1n(-c2ccccc2)c(=O)n2c(-c3ccccc3)c(-c3ccccc3)n12
UO-31 renal
  TGI: > 100 µM
SK-MEL-28 melanoma
  TGI: > 100 µM
HT29 colon
  TGI: > 100 µM
SF-539 CNS
  TGI: > 100 µM
LOX IMVI melanoma
  TGI: > 100 µM
ACHN renal
  TGI: > 100 µM
RXF 393 renal
  TGI: > 100 µM
COLO 205 colon
  TGI: > 100 µM
UACC-62 melanoma
  TGI: > 100 µM
SN12C renal
  TGI: > 100 µM
UACC-257 melanoma
  TGI: > 100 µM
SK-MEL-2 melanoma
  TGI: > 100 µM
MOLT-4 leukemia
  TGI: > 100 µM
OVCAR-5 ovarian
  TGI: > 100 µM
SF-295 CNS
  TGI: > 100 µM
786-0 renal
  TGI: > 100 µM
HCT-15 colon
  TGI: > 100 µM
NCI-H226 lung
  TGI: > 100 µM
TK-10 renal
  TGI: > 100 µM
BT-549 breast
  TGI: > 100 µM
HCT-116 colon
  TGI: > 100 µM
OVCAR-8 ovarian
  TGI: > 100 µM
HS 578T breast
  TGI: > 100 µM
K-562 leukemia
  TGI: > 100 µM
IGROV1 ovarian
  TGI: > 100 µM
SW-620 colon
  TGI: > 100 µM
SNB-75 CNS
  TGI: > 100 µM
NCI-H460 lung
  TGI: > 100 µM
HOP-62 NSCLC
  TGI: > 100 µM
CCRF-CEM leukemia
  TGI: > 100 µM
MDA-N
  TGI: > 100 µM
HL-60(TB) leukemia
  TGI: > 100 µM
A498 renal
  TGI: > 100 µM
A549 NSCLC
  TGI: > 100 µM
SK-OV-3 ovarian
  TGI: > 100 µM
U251 CNS
  TGI: > 100 µM
M14 melanoma
  TGI: > 100 µM
SNB-19 CNS
  TGI: > 100 µM
OVCAR-4 ovarian
  TGI: > 100 µM
NCI-H23 lung
  TGI: > 100 µM
SR leukemia
  TGI: > 100 µM
KM12 colon
  TGI: > 100 µM
OVCAR-3 ovarian
  TGI: > 100 µM
NCI/ADR-RES ovarian
  TGI: > 100 µM
SK-MEL-5 melanoma
  TGI: > 100 µM
MALME-3M melanoma
  TGI: > 100 µM
HOP-92 NSCLC
  TGI: > 100 µM
EKVX NSCLC
  TGI: > 100 µM
MCF7 breast
  TGI: > 100 µM
PC-3 prostate
  TGI: > 100 µM
MDA-MB-231 breast
  TGI: > 100 µM
CAKI-1 renal
  TGI: > 100 µM
HCC-2998 colon
  TGI: > 100 µM

## C=C(C)CCC1CC=[N+]([O-])OC1C(C)(C)C (centres undefined)
UO-31 renal
  TGI: 85.7 µM
HT29 colon
  TGI: > 100 µM
SF-539 CNS
  TGI: > 100 µM
LOX IMVI melanoma
  TGI: 40.3 µM
ACHN renal
  TGI: > 100 µM
RXF 393 renal
  TGI: > 100 µM
COLO 205 colon
  TGI: > 100 µM
UACC-62 melanoma
  TGI: > 100 µM
SN12C renal
  TGI: > 100 µM
UACC-257 melanoma
  TGI: > 100 µM
MOLT-4 leukemia
  TGI: > 100 µM
OVCAR-5 ovarian
  TGI: > 100 µM
SF-295 CNS
  TGI: > 100 µM
786-0 renal
  TGI: > 100 µM
DU-145 prostate
  TGI: > 100 µM
HCT-15 colon
  TGI: > 100 µM
NCI-H226 lung
  TGI: 48.9 µM
TK-10 renal
  TGI: > 100 µM
HCT-116 colon
  TGI: > 100 µM
OVCAR-8 ovarian
  TGI: > 100 µM
HS 578T breast
  TGI: > 100 µM
K-562 leukemia
  TGI: > 100 µM
IGROV1 ovarian
  TGI: > 100 µM
SW-620 colon
  TGI: > 100 µM
SNB-75 CNS
  TGI: > 100 µM
NCI-H460 lung
  TGI: > 100 µM
HOP-62 NSCLC
  TGI: > 100 µM
CCRF-CEM leukemia
  TGI: 50.5 µM
MDA-N
  TGI: > 100 µM
HL-60(TB) leukemia
  TGI: 27.2 µM
A498 renal
  TGI: > 100 µM
A549 NSCLC
  TGI: 51.4 µM
SK-OV-3 ovarian
  TGI: > 100 µM
RPMI-8226 leukemia
  TGI: > 100 µM
U251 CNS
  TGI: > 100 µM
M14 melanoma
  TGI: 63.5 µM
T-47D breast
  TGI: 90.1 µM
SR leukemia
  TGI: > 100 µM
KM12 colon
  TGI: 64.8 µM
OVCAR-3 ovarian
  TGI: > 100 µM
NCI/ADR-RES ovarian
  TGI: 67.3 µM
SK-MEL-5 melanoma
  TGI: > 100 µM
HOP-92 NSCLC
  TGI: > 100 µM
EKVX NSCLC
  TGI: > 100 µM
SF-268 CNS
  TGI: > 100 µM
MCF7 breast
  TGI: 89.9 µM
MDA-MB-231 breast
  TGI: 66.8 µM
MDA-MB-435
  TGI: 40.7 µM
CAKI-1 renal
  TGI: 75.3 µM
HCC-2998 colon
  TGI: > 100 µM
NCI-H522 lung
  TGI: 58.5 µM
